Assay results as given in patent publication US5824647A, “Chemotactic wound healing peptides” (priority 1995, dated 1998).

Experiments:
[1] = system: infant foreskin fibroblasts; assay: Fibroblast chemotaxis in modified Boyden chambers (incl. checkerboard and deactivation studies); assay type: cell-based, human; set-up: key to FIBROBLAST EFFECTS Migration: NE = No Effect
Procedure: Target cells used in in vitro chemotaxis assays were infant foreskin fibroblasts obtained by establishing monolayer cultures from explants of tissue. Cells were maintained in Eagle's minimum essential medium (MEM) supplemented with non-essential amino acids, antibiotics, 50 ug/ml ascorbic acid, and 9% fetal calf serum (FCS). Cells were passaged by trypsinization every 3-5 days.
Infant foreskin fibroblasts were harvested from monolayer culture by gentle trypsinization, washed twice in serum-free Eagles's MEM and adjusted to a final concentration of 250,000 cells/ml. The cell suspension (0.4 ml) was added to the upper compartments of blind well modified Boyden chemotaxis chambers. The peptides of the invention being assayed for chemotactic activity were solubilized in glycylglycine (0.015M) buffered NaCl (0.14M), pH 7.2, hereinafter referred to as GGBS, and diluted 50% with serum-free MEM. Test substances were added to the lower compartment of the chemotaxis chambers. Gelatin-treated polycarbonate filters (8 micron pore size) were interposed between the lowest compartment and the upper cell compartment. Loaded chambers were incubated at 37° C. in a humidified atmosphere containing 5% CO2 for 150 minutes. After incubation, the chambers were disassembled, the filters removed, stained with hematoxylin, and mounted on glass cover slips. Fibroblast chemotaxis was quantitated by counting the number of fibroblasts in 20 oil immersion fields (OIF) that migrated and adhered to the lower surface of each filter. Samples were tested in quadruplicate and results are expressed as mean number of fibroblasts per 20 OIF±standard error of the mean (SEM). Chemotaxis neutralization studies were performed by adding TGF-β1 or fibronectin to the upper cell compartment and testing for effects on fibroblast migration to the TGF-β peptides.
Zigmond-Hirsch checkerboard analysis (Zigmond & Hirsch, J. Exptl. Med. 137:387, 1972) was performed to determine whether the 7-mer peptide 368-374 (Val Tyr Tyr Val Gly Arg Lys) induced chemotaxis of fibroblasts, monocytes and neutrophils.
Deactivation studies were utilized to determine whether the peptides of the invention containing the 7-mer peptide amino acid sequence induced chemotaxis via cellular receptors and mechanisms utilized by intact TGF-β.

[2] = system: human peripheral blood monocytes; assay: Monocyte chemotaxis in modified Boyden chambers; assay type: cell-based; set-up: key to Monocyte Migration: NE = No Effect
Source text: Human peripheral blood neutrophils and monocytes, isolated from whole blood using standard techniques may also be used in the chemotaxis assays, in a manner similar to infant foreskin fibroblasts, to measure the chemotactic activity of the peptides towards inflammatory cells. Such cells may also be maintained in supplemented MEM as above, to which 5-10% FCS may be added. When using neutrophils and monocytes, instead of fibroblasts, the polycarbonate filters used in the modified Boyden chambers had pore sizes of 2 and 3 microns, respectively. As above, all assays were carried out in quadruplicate.
The following 7-mer peptides (peptides 368-374, corresponding to amino acids 368-374 of human TGF-β1): VYYVGRK (SEQ ID NO. 1), LYYIGKT (SEQ ID NO. 2), LYYVGRT (SEQ ID NO. 3), IYYVGRN (SEQ ID NO. 4) and IYYVGRT (SEQ ID NO. 5) were synthesized by the Merrifield technique, purified by HPLC, and tested at different concentrations in the same assay for their ability to stimulate chemotaxis of human peripheral blood monocytes in vitro modified Boyden chambers.

[3] = system: infant foreskin fibroblasts; assay: Collagen production by fibroblasts (modified Peterofsky-Diegelman assay); assay type: cell-based, human; set-up: key to FIBROBLAST EFFECTS Collagen: NE = No Effect
Procedure: The peptides of the invention were also found to stimulate collagen production by fibroblasts. Collagen production by fibroblasts in response to the peptides of the present invention was measured utilizing a modified Peterofsky-Diegelman assay. The assay is used to determine whether the peptides of the invention stimulate or inhibit collagen production by fibroblasts.
Low passage (4-12 subpassages) infant foreskin fibroblasts were plated out at a density of 10^5 cells/well in Falcon 3008 multiwell plates in complete maintenance medium containing 10% FCS. After cells reached confluency (72 hr), the medium was changed daily for 3 days, each time being replaced with serum-free maintenance medium containing fresh ascorbic acid. Samples (50 μl) were added to triplicate wells containing 450 μl serum-free MEM supplemented with fresh ascorbic acid and [^3 H]-proline (sp. act. 20 Ci/mmole), but no non-essential amino acids. After an additional 24 hr of culture, supernatants were reacted with protease-free bacterial collagenase to digest all collagen. Similar aliquots of unreacted supernatants and bacterial collagenase-treated supernatants were precipitated with cold 10% trichloroacetic acid (TCA) and were centrifuged for 5 minutes in a Beckman microfuge. Aliquots of the supernatants, after TCA precipitated proteins were pelleted, were placed in vials containing Hydrofluor and then were counted in a scintillation counter. CPM from TCA precipitated supernatants not reacted with bacterial collagenase were subtracted from each culture. The resulting CPM was a reflection of the collagen produced by that culture.
A modified Peterofsky-Diegelmann assay was used to screen peptide samples for their ability to stimulate or inhibit collagen production. Low passage (4-12 subpassages) infant foreskin fibroblast were plated out at a density of 10^5 cells/well of Falcon 3008 multiwell plates in complete maintenance medium containing 10% FCS. After cells reached confluency (72 hr) the medium was changed daily for 3 days, each time being replaced with serum-free maintenance medium containing fresh ascorbic acid. Samples ([…]) were added to triplicate wells containing […] serum free MEM supplemented with fresh ascorbic acid and [^3 H]-proline (sp. act. 20 Ci/mmole), but no non-essential amino acids. After an additional 24 hours of culture, supernatants were reacted with protease-free bacterial collagenase to digest all collagen. Similar aliquots of unreacted supernatants and bacterial collagenase-treated supernatants were precipitated with cold 10% trichloroacetic acid (TCA) and were centrifuged for 5 minutes in a Beckman microfuge. Aliquots of the supernatants, after TCA precipitated proteins were pelleted, were placed in vials containing Hydrofluor and then were counted in a scintillation counter. CPM from TCA precipitated supernatants not reacted with bacterial collagenase were subtracted from each culture. The resulting CPM was a reflection of the collagen produced by that culture.
Collagen production was measured following administration of the various 7-mer peptides 368-374 (SEQ ID NOs. 1-5) to fibroblasts. Peptides […] (SEQ ID NO. 1), LYYIGKT (SEQ ID NO. 2), LYYVGRT (SEQ ID NO. 3), IYYVGRN (SEQ ID NO. 4) and IYYVGRT (SEQ ID NO. 5) were synthesized by the Merrifield technique, purified by HPLC, and tested at different concentrations in the same assay for their ability to stimulate production of collagen in confluent cultures of infant foreskin fibroblasts. Collagen production was measured by incorporation of [^3 H]proline into collagenase-sensitive protein. All samples were tested in triplicate, and values represent the mean of triplicate determinations. Data are expressed as "% stimulation" of collagen production relative to control production in cultures with plain culture medium only added. […]

fibroblasts [4] = assay: Hyaluronate production by fibroblasts; assay type: cell-based; set-up: key to FIBROBLAST EFFECTS Hyaluronate: NE = No Effect; details: Table II summary
fibroblasts [5] = assay: HLA-DR, fibroblast effects; assay type: cell-based; set-up: key: NE = No Effect; details: Table II summary
[6] = system: infant foreskin fibroblasts; assay: Collagen production by fibroblasts (modified Peterofsky-Diegelman assay); assay type: cell-based, human; details: [3H]proline incorporation into collagenase-sensitive protein; listed as LYYIGRT
[7] = peptide in lower compartment of modified Boyden chamber

280-339: synthetic peptide 280-339, corresponds to the amino terminal portion of TGF-β1 monomer (ALDTNYCFSSTEKNCCVRQLYIDFRKDLGWKWIHEPKGYHANFCLGPCPYIWSLDTQYSK; printed: Ala Leu Asp Thr Asn Tyr Cys Phe Ser Ser Thr Glu Lys Asn Cys Cys Val Arg Gln Leu Tyr Ile Asp Phe Arg Lys Asp Leu Gly Trp Lys Trp Ile His Glu Pro Lys Gly Tyr His Ala Asn Phe Cys Leu Gly Pro Cys Pro Tyr Ile Trp Ser Leu Asp Thr Gln Tyr Ser Lys)
FIBROBLAST EFFECTS Migration ([1]; Table II summary): NE
Monocyte Migration ([2]; Table II summary): NE
FIBROBLAST EFFECTS Collagen ([3]; Table II summary): NE
FIBROBLAST EFFECTS Hyaluronate (fibroblasts [4]): NE
FIBROBLAST EFFECTS HLA-DR (fibroblasts [5]): NE

LYYIGKT [7-mer peptide 368-374 homolog]
fibroblast chemotaxis / migration (in words) [1, 7]: induced fibroblast chemotaxis at all of the concentration tested
monocyte chemotaxis / migration (in words) [2, 7]: induced monocyte chemotaxis at all of the concentrations tested
collagen production by fibroblasts (in words) ([3]; [3H]proline incorporation into collagenase-sensitive protein): stimulated collagen production to some degree
collagen production by fibroblasts (in words) [6]: stimulated collagen production
